Numbering of substitutions follows the chain as printed. Values joined by “and” are separate entries in the source; they are usually repeats but may differ in a detail not shown here. Equal entries are not always repeated. “Also recorded” adds a separate entry of the source.
Tests used:
rats [1] = assay: Daily dosing with 1.0 mg/kg MSF/peanut oil in rats (clinical signs of distress and/or death); format: in vivo
[2] = target: T1, acetylcholinesterase in the brain (Rattus norvegicus, UniProt P37136); conditions: cerebrally ischemic animals (U.S. Patent Publication 2003/0087959); cited from earlier work
T1 construct: host or cells: brain of cerebrally ischemic animals, dosed in vivo
T1 sequence (P37136 32-614): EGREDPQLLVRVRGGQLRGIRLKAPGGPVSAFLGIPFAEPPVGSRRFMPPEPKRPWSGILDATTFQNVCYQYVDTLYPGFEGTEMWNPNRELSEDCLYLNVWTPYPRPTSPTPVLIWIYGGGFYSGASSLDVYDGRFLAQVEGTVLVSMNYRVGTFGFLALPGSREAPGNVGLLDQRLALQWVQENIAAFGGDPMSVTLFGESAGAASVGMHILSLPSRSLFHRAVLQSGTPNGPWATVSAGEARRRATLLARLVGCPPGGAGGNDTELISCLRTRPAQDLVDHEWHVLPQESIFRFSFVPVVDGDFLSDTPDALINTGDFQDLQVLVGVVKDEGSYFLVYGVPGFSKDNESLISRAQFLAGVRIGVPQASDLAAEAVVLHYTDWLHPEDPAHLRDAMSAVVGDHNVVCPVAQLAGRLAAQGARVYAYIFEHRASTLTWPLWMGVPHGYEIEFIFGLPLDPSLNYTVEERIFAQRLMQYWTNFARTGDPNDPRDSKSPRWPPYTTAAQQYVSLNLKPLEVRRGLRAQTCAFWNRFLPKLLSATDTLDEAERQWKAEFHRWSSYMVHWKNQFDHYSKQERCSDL

[3] = tested on: patients with senile dementia of Alzheimer type; conditions: patients with senile dementia of Alzheimer type (U.S. Pat. No. 5,798,392); cited from earlier work
brain AChE [4] = target: T2, brain AChE (Rattus norvegicus, UniProt P37136); conditions: ex vivo, rats, without toxicity (Moss et al., 1985); cited from earlier work
T2 construct: host or cells: rat brain, ex vivo
T2 sequence (P37136 32-614): T1 sequence (P37136 32-614)

[5] = tested on: septal choline acetyltransferase; conditions: cerebrally ischemic animals, versus vehicle-treated animals (U.S. Patent Publication 2003/0087959); cited from earlier work
human cortex AChE = target: T3, human cortex AChE (Homo sapiens, UniProt P22303); conditions: in vitro (Pacheco et al., 1995); cited from earlier work
T3 construct: host or cells: human cortex, in vitro

animals = assay: Acute oral toxicity (LD50) of MSF in animals; format: in vivo, rats
Description: The acute oral LD50, as indicated by the data, was determined to be greater than 3 mg/kg but less than 4 mg/kg.

aged rats = conditions: daily doses (Malin et al., 1993); cited from earlier work
[6] = tested on: enzyme in the periphery (cholinesterase); conditions: rodents, administered daily at low doses (Moss et al., 1988); cited from earlier work
[7] = tested on: cerebrally ischemic animals; conditions: compared to untreated controls (U.S. Patent Publication 2003/0087959); cited from earlier work
rats [8] = conditions: daily doses (Borlongan et al., 2005); cited from earlier work
brain AChE [9] = conditions: oral MSF 0.5 mg/kg daily, after 5 days of administration; cited from earlier work
[10] = tested on: brain acetylcholinesterase; conditions: cited from earlier work
brain AChE [11] = target: T4, brain AChE (Mus musculus, UniProt P21836); conditions: ex vivo, mice, without toxicity (Kobayashi et al., 1999); cited from earlier work
T4 construct: host or cells: mouse brain, ex vivo
T4 sequence (P21836 32-614): T1 sequence (P37136 32-614) with I59V, T109A, S128A, T144A, S271A, D313E, A392T, V467T, Q478K, R499Q

rats [12] = assay: Alternating day dosing with 2.0 mg/kg MSF/peanut oil in rats (death); format: in vivo; conditions: 2 mg/kg every other day; for Number Alive/Numbered Treated / lethality: oral
Description: To confirm the “pulsing” theory for MSF administration, the inventor continued the experiment described above and extended MSF treatment to double the total lethal dose observed in Example 1 (from 4 mg/kg to 8 mg/kg). Rats in were treated at 2 mg/kg/every other day for 2 more round (total of 8 mg/kg in 8 days).

rats [13] = conditions: daily doses (Palacios-Esquivel et al., 1993); cited from earlier work
[14] = target: T5, brain acetylcholinesterase (Rattus norvegicus, UniProt P37136); conditions: cited from earlier work
T5 construct: host or cells: rodent brain, dosed in vivo
T5 sequence (P37136 32-614): T1 sequence (P37136 32-614)

[15] = relatively small doses over a long period of time (Moss et al., 1988; 1985)

T3 sequence (P22303 32-614): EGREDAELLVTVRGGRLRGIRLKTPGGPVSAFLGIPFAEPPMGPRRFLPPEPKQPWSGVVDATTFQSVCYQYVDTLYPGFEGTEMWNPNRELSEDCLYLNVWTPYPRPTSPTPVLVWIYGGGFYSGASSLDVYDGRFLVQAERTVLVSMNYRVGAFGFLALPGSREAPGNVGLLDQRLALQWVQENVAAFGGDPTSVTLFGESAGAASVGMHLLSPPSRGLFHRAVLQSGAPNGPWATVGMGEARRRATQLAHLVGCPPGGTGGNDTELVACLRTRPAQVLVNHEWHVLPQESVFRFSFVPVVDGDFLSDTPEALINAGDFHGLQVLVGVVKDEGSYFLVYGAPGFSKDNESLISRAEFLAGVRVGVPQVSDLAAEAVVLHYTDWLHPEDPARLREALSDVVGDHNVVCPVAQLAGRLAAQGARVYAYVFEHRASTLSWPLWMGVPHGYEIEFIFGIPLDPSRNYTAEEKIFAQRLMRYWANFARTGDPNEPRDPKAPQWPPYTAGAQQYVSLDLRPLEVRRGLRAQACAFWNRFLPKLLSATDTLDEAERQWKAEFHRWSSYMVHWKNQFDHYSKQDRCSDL

SMILES: CS(=O)(=O)F [MSF, methanesulfonyl fluoride]
- clinical signs of distress and/or death (rats [1]; oral gavage, 1.0 mg/kg daily, MSF/peanut oil 1.0 mg/ml, 1 mg/kg): high toxicity and animal deaths
- Number Alive/Numbered Treated (rats [1]; oral, 1 mg/kg daily, 4 days): 0/7 (4 males + 3 female)
- inhibition of acetylcholinesterase in the brain [2]: about 90%
- cognitive performance in patients [3]: improvement in cognitive performance
- inhibition of brain AChE (brain AChE [4]): up to 80%
- septal choline acetyltransferase immunoreactivity [5]: more intense septal choline acetyltransferase immunoreactivity
- selectivity for inhibition of human cortex AChE compared to butyrylcholinesterase (human cortex AChE): highly selective
- Number Dead/Number Treated, Combination (animals; 1 mg/kg (0.4 mg/mL)): 0/10
- Number Dead/Number Treated, Females (animals; 1 mg/kg (0.4 mg/mL)): 0/5
- Number Dead/Number Treated, Males (animals; 1 mg/kg (0.4 mg/mL)): 0/5
- Number Dead/Number Treated, Combination (animals; 2 mg/kg (0.8 mg/mL)): 0/10
- Number Dead/Number Treated, Females (animals; 2 mg/kg (0.8 mg/mL)): 0/5
- Number Dead/Number Treated, Males (animals; 2 mg/kg (0.8 mg/mL)): 0/5
- Number Dead/Number Treated, Combination (animals; 3 mg/kg (1.2 mg/mL)): 1/10
- Number Dead/Number Treated, Females (animals; 3 mg/kg (1.2 mg/mL)): 1/5
- Number Dead/Number Treated, Males (animals; 3 mg/kg (1.2 mg/mL)): 0/5
- Number Dead/Number Treated, Combination (animals; 4 mg/kg (1.6 mg/mL)): 10/10
- Number Dead/Number Treated, Females (animals; 4 mg/kg (1.6 mg/mL)): 5/5
- Number Dead/Number Treated, Males (animals; 4 mg/kg (1.6 mg/mL)): 5/5
- reversing normal age-related memory impairment (aged rats): highly effective
- inhibition of enzyme in the periphery [6]: less than 30%
- cognitive performance [7]: improved cognitive performance
- reversing ischemia-induced cognitive deficits (rats [8]): highly effective
- inhibition in the brain (brain AChE [9]): 90%
- inhibition of brain AChE ([10]; ex vivo, monkey cortex, without toxicity (Moss et al., 1988)): up to 80%
- inhibition of monkey brain acetylcholinesterase [10, 15]: 80-90%
- inhibition of brain AChE (brain AChE [11]): up to 80%
- animals survived (rats [12]; total of 8 mg/kg in 8 days): 83.3%
- Number Alive/Numbered Treated (rats [12]; 4 days (total 4 mg/kg)): 6/6 (3 males + 3 female)
- lethality (rats [12]; 4 days (total 4 mg/kg)): no lethal event; also recorded: By Day 4, all rats were alive and it was decided to continue the treatment
- Number Alive/Numbered Treated (rats [12]; 8 days (total 8 mg/kg)): 5/6 (3 males + 3 female) and 5/6
- lethality (rats [12]; 8 days (total 8 mg/kg), follow-up over two weeks): 1 animal was found dead
- reversing scopolamine-induced amnesia (rats [13]): highly effective
- inhibition of rodent brain acetylcholinesterase [14, 15]: 80-90%
- inhibition of brain cholinesterase (average) ([14]; rodents, administered daily at low doses (Moss et al., 1988)): 90%

From patent US20100256243A1, “Dosing Regimen for the Treatment of Alzheimer's Disease With Sulfonyl Fluorides” (priority 2009, published 2010)
